This note sets out measurements from patent US6559160B1, “Compounds and methods for modulating cxcr3 function” (Chemocentryx, Inc., priority 1999, dated 2003).

One data set deals with T1, CXCR3 (Homo sapiens, UniProt P49682).
T1 construct: CXCR3-expressing cells were prepared according to standard methods and used in most assays
T1 sequence (P49682 1-368): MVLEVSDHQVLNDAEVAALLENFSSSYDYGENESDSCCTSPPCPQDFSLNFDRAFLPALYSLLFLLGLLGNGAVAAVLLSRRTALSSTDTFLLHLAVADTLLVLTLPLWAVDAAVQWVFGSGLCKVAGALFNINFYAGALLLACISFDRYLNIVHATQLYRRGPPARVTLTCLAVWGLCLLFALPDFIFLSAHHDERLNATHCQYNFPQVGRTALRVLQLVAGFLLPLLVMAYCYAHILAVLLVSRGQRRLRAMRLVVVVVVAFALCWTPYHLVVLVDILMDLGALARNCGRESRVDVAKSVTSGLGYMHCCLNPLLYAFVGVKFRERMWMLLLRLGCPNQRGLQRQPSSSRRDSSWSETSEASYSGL
Description: CXCR3 binding assay: inhibition of 125I-IP-10 binding to CXCR3-expressing cells. As to conditions: concentration required to reduce binding of labeled IP-10 to the receptor by 50%, approx. 3 hours at 4° C. How it is done:
Source plates of chemical libraries were obtained from commercial vendors and contained individual compounds at 5 mg/mL in DMSO, or in some instances, at 1 mg/mL. From these, multiple compound plates containing 10 compounds in each well were made, and these were diluted in 20% DMSO to a concentration of 50 μg/mL (10 μg/mL for those beginning at 1 mg/mL). An aliquot of 20 μL of each mixture was put into the test plates, which were stored frozen until use.
CXCR3-expressing cells were prepared according to standard methods and used in most assays. The cells were cultured in IMDM-5% FBS, and harvested when the concentration was between 0.5-1.0×10^6 cells/mL. The cells were centrifuged and resuspended in assay buffer (20 mM HEPES, 80 mM NaCl, 1 mM CaCl2, 5 mM MgCl2, and with 0.2% bovine serum albumin, pH 7.1) to a concentration of 5.6×10^6 cells/mL. Using a Multi-Probe automated system, 0.09 mL of cells was added to each well of the assay test plates containing the compounds, followed by 0.09 mL of ^125I-Ip-10 (from New England Nuclear) diluted in assay buffer (final concentration ˜25-100 pM, with ˜50,000 cpm per well). The final concentration of the compounds was 1-5 μg/mL each. The plates were sealed and incubated for approximately 3 hours at 4° C. on a shaker platform. (In some experiments radiolabeled MIG was used.) The assay plates were harvested using Packard filter plates, pre-soaked in PEI solution, on the vacuum harvest apparatus. Scintillation fluid (35 μL) was added to each of the wells, the plates were sealed and counted in a Top Count scintillation counter. Control wells contained either diluent only (for total counts) or excess IP-10 (1 μg/mL, for non-specific binding) and were used to calculate the percent of total inhibition for each set of compounds. Further tests on individual compounds were carried out in the same manner. IC50 values are those concentrations required to reduce the binding of labeled IP-10 to the receptor by 50%.
The binding of IP-10 or MIG to CXCR3 was first optimized by testing various pH and salt concentrations for their effect in a homologous competition assay. Maximum binding of radiolabeled MIG takes place under low salt (80 mM) conditions, as compared to normal salt (140 mM), while there is no difference between pH 7.1 and 7.4.
The IC50 is the midpoint of a concentration-inhibition curve. Consider `CCCCCC(=O)N(CCN(C)C)C(C)c1nc2ccccc2c(=O)n1-c1ccc(F)cc1` (stereo not shown) [Compound 1.1], for which the IC50 was above 5000 nM.

Compound `CCCCCCC(=O)N(CCN(C)C)C(C)c1nc2ccccc2c(=O)n1-c1ccc(F)cc1` (stereo not shown) [Compound 1.2] came in with a 50% inhibitory concentration (IC50) above 5000 nM.

As to `CCCCCCC(=O)N(CCN(C)C)C(C)c1nc2ccccc2c(=O)n1-c1ccc(OC)cc1` (stereo not shown) [Compound 1.3], the concentration for half-maximal inhibition (IC50) is 800 to 5000 nM.

`CCCCCCCC(=O)N(CCN(C)C)C(C)c1nc2ccccc2c(=O)n1-c1ccc(Br)cc1` (stereo not shown) [Compound 1.4] registered a half-maximal inhibitory concentration (IC50) of 800 to 5000 nM.

As to `CCCCCCCC(=O)N(CCN(C)C)C(C)c1nc2ccccc2c(=O)n1-c1ccc(OC)cc1` (stereo not shown) [Compound 1.5], the IC50 was 800 to 5000 nM.

The compound `CCCCCCCC(=O)N(CCN(C)C)C(C)c1nc2ccccc2c(=O)n1-c1ccc(F)cc1` (stereo not shown) [Compound 1.6] yielded an IC50 of 800 to 5000 nM.

Take `CCCCCCCCC(=O)N(CCN(C)C)C(C)c1nc2ccccc2c(=O)n1-c1ccc(C)cc1` (stereo not shown) [Compound 1.7]: the 50% inhibitory concentration (IC50) was above 5000 nM.

`CCCCCCCCC(=O)N(CCN(C)C)C(C)c1nc2ccccc2c(=O)n1-c1ccc(OC)cc1` (stereo not shown) [Compound 1.9] showed an IC50 of at most 800 nM.

Turning to `CCCCCCCCC(=O)N(CCN(C)C)C(C)c1nc2ccccc2c(=O)n1-c1ccc(Cl)cc1` (stereo not shown) [Compound 1.10], the 50% inhibitory concentration (IC50) is at most 800 nM.

`CCCCCCCCCC(=O)N(CCN(C)C)C(C)c1nc2ccccc2c(=O)n1-c1ccc(F)cc1` (stereo not shown) [Compound 1.11] showed an IC50 of at most 800 nM.

Regarding `CCCCCCCCCC(=O)N(CCN(C)C)C(C)c1nc2ccccc2c(=O)n1-c1ccccc1` (stereo not shown) [Compound 1.12], the half-inhibitory concentration (IC50) is above 5000 nM.

With `CCCCCCCCCCCC(=O)N(CCN(C)C)C(C)c1nc2ccccc2c(=O)n1-c1ccc(Cl)cc1` (stereo not shown) [Compound 1.13], the IC50 was in the range of 800 to 5000 nM.

The compound `CCCCCCCCCCCCCC(=O)N(CCN(C)C)C(C)c1nc2ccccc2c(=O)n1-c1ccc(F)cc1` (stereo not shown) [Compound 1.14] showed an IC50 of at most 800 nM.

As for `CCCCCCCCCCCCCC(=O)N(CCN(C)C)C(C)c1nc2ccccc2c(=O)n1-c1ccc(OC)cc1` (stereo not shown) [Compound 1.15], the concentration for half-maximal inhibition (IC50) is at most 800 nM.

Another data set concerns 5 other chemokine receptors on activated lymphocytes. Description: Signalling (calcium mobilization) by other chemokines on activated lymphocytes.
Details: not given
Format: cell-based, human. The procedure:
Calcium mobilization assays were performed by labeling human peripheral blood lymphocytes (cultured in 10 ng/mL IL-2 for at least 12 days) with INDO-1 dye (45 min at room temperature), washing with PBS, and resuspending into flux buffer (HBSS with 1% fetal bovine serum). For each test, 1×10^6 cells were incubated at 37° C. in the cuvette of a PTI spectrometer, and the ratio of 400/490 nm emission was plotted over time (typically 2-3 minutes), with compounds added at 5 seconds, followed by IP-10 or other chemokines.
In general terms: Calcium flux is commonly read through the fluorescence of an indicator in the cells.
Take `CCCCCCCCCC(=O)N(CCN(C)C)C(C)c1nc2ccccc2c(=O)n1-c1ccc(F)cc1` (stereo not shown) [Compound 1.11]: the “interference with signalling by other chemokines” value is recorded as “did not interfere with signalling by those chemokines”.

System in the next data set: not given
Experiment: not given
Details: not given
By melting point is commonly meant the temperature, or range, at which the solid turns liquid. With `CCCCCCCCCC(=O)N(CCN(C)C)C(C)c1nc2ccc(OC)cc2c(=O)n1-c1ccc(OC)cc1` (stereo not shown) [Compound 4.1], the melting point was 124.2 °C.

As to `CCCCCCCCCC(=O)N(CCN(C)C)C(C)c1nc2ccc(C)cc2c(=O)n1-c1ccc(F)cc1` (stereo not shown) [Compound 4.4], the melting point stood at 121 °C.

As to `CCCCCCCCCC(=O)N(CCN(C)C)C(C)c1nc2ccc(Cl)cc2c(=O)n1-c1ccc(F)cc1` (stereo not shown) [Compound 4.5], the melting point was 122.9 °C.

In turn, `CCCCCCCCCC(=O)N(CCN(C)C)C(C)c1nc2c(OC)c(OC)c(OC)cc2c(=O)n1-c1ccc(F)cc1` (stereo not shown) [Compound 4.7] yielded a melting point of 106.7 °C.
